Here are results for 14 molecules from ChEMBL document CHEMBL1144921, “14-amino, 14-alkylamino, and 14-acylamino analogs of oxymorphindole. Differential effects on opioid receptor binding and functional profiles” (J Med Chem, 2003).

Assay [1] deals with T1, Mu-type opioid receptor (Homo sapiens, UniProt P35372). In words: Displacement of [3H]DAMGO from human recombinant Opioid receptor mu 1 on CHO cell membranes. Type of assay: cell-based. Background: Loss of bound radioactivity is the signal in a displacement assay; it reports binding, not function.
T1 sequence (P35372 whole entry): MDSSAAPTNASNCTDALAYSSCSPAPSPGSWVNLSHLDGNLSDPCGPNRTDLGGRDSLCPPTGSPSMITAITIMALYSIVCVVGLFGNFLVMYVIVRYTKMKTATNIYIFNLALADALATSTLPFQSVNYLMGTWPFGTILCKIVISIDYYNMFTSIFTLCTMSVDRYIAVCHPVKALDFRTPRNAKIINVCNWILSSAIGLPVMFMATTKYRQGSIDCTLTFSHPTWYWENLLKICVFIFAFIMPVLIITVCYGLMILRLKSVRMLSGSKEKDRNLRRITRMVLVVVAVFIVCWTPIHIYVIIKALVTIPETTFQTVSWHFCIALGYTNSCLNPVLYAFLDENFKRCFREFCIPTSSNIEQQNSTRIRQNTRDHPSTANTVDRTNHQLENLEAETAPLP
The target in assay [2] is T1, Mu-type opioid receptor. In words: Stimulation of [35S]GTP-gamma-S, binding to recombinant human Opioid receptor mu 1 expressed in CHO cells. It is filed as functional, cell-based. (In general: GTPγS resists hydrolysis and so accumulates on activated G proteins.)
The target in assay [3] is T1, Mu-type opioid receptor. In words: Percent stimulation of [35S]GTP-gamma-S, binding in recombinant human Opioid receptor mu 1 transfected into CHO cells. It is filed as functional, cell-based.
Assay [4] addresses T2, Delta-type opioid receptor (Homo sapiens, UniProt P41143). In words: Stimulation of [35S]GTP-gamma-S, binding at human recombinant Opioid receptor delta 1 transfected into CHO cells. Type of assay: functional, cell-based.
Assay [5] addresses T2, Delta-type opioid receptor. In words: Displacement of [3H]C1-DPDPE from human recombinant Opioid receptor delta 1 on CHO cell membranes. Type of assay: cell-based.
Assay [6] addresses T3, Kappa-type opioid receptor (Homo sapiens, UniProt P41145). In words: Displacement of [3H]U-69593 from human recombinant Opioid receptor kappa 1 on CHO cell membranes. Type of assay: cell-based.
The target in assay [7] is T3, Kappa-type opioid receptor. In words: Percent stimulation of [35S]GTP-gamma-S, binding in recombinant human Opioid receptor kappa 1 transfected into CHO cells: Antagonist activity. It is filed as functional, cell-based. As to conditions: filed as antagonist.
In assay [8] the target is Opioid receptors; delta & kappa (Homo sapiens) (UniProt P41145+P41143). In words: Selectivity between kappa opioid receptor and delta opioid receptor. It is filed as functional.
Chain of Opioid receptors; delta & kappa (Homo sapiens) (P41143 whole entry, looked up): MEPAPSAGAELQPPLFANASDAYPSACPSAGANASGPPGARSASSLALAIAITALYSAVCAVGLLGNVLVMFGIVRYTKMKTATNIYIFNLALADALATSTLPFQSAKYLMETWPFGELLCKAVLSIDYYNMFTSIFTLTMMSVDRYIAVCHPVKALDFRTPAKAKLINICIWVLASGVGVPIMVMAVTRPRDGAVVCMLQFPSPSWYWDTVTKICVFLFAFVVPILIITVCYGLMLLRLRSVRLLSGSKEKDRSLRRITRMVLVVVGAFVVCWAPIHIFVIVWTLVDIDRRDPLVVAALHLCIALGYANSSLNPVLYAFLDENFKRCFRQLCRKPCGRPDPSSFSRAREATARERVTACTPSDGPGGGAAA
Chain of Opioid receptors; delta & kappa (Homo sapiens) (P41145 whole entry, looked up): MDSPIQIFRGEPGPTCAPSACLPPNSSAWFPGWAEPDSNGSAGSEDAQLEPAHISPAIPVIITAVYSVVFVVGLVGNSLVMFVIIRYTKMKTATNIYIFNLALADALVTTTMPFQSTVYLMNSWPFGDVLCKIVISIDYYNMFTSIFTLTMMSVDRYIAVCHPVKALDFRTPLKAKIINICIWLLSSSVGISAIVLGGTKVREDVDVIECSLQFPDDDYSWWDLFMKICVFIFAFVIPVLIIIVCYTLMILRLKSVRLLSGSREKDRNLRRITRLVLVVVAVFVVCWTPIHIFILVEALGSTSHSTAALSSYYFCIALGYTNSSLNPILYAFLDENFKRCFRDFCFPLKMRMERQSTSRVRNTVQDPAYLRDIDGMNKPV
Assay [9] deals with T2, Delta-type opioid receptor. In words: Percent stimulation of [35S]GTP-gamma-S, binding to recombinant human Opioid receptor delta 1 expressed in CHO cells. It is filed as functional, cell-based.
Assay [10] deals with Opioid receptors; mu & delta (Homo sapiens) (UniProt P41143+P35372). In words: Selectivity between mu opioid receptor and delta opioid receptor. It is filed as functional.
Chain of Opioid receptors; mu & delta (Homo sapiens) (P35372 whole entry, looked up): as the sequence (P35372 whole entry) above
Chain of Opioid receptors; mu & delta (Homo sapiens) (P41143 whole entry, looked up): as the sequence (P41143 whole entry, looked up) above
Assay [11] concerns the target T3, Kappa-type opioid receptor. In words: Percent stimulation of […] binding in recombinant human Opioid receptor kappa 1 transfected into CHO cells: Antagonist activity. It is filed as cell-based. As to conditions: filed as antagonist.
Assay [12] has as its target T3, Kappa-type opioid receptor. In words: Percent stimulation of [35S]GTP-gamma-S, binding in recombinant human Opioid receptor kappa 1 transfected into CHO cells. It is filed as functional, cell-based.
Assay [13] concerns the target T3, Kappa-type opioid receptor. In words: Stimulation of […] binding at human recombinant Opioid receptor kappa 1 transfected into CHO cells. Type of assay: cell-based.
Assay [14] addresses T1, Mu-type opioid receptor. In words: Percent stimulation of [35S]GTP-gamma-S, binding in recombinant human mu opioid receptor transfected into CHO cells. It is filed as functional, cell-based.

Molecules are shown by their SMILES.

T2 sequence (P41143 whole entry): as the sequence (P41143 whole entry, looked up) above
T3 sequence (P41145 whole entry): as the sequence (P41145 whole entry, looked up) above

For orientation: Ki means the dissociation constant of the complex between target and ligand, obtained from inhibition or displacement. Usually EC50 stands for the concentration at which the effect is half-maximal. As for `CN1CC[C@]23c4c5ccc(O)c4O[C@H]2c2[nH]c4ccccc4c2C[C@@]3(NC(=O)CCc2ccccc2)C1C5`, the figures for the Ki (on Mu-type opioid receptor [1]; in assay [5]; in [6]) were 9.61 nM, 4.23 nM and 24.5 nM, respectively. The EC50 on Mu-type opioid receptor [2] was 5.2 nM; in assay [4], 1.4 nM. Further, the Stimulation is 27% on Mu-type opioid receptor [3] and 72% in assay [9]. Moreover, the Activity result in assay [7] was “Antagonist”. In addition, the Selectivity in assay [8] is 5.8; in assay [10], 2.3.

As for `Oc1ccc2c3c1O[C@H]1c4[nH]c5ccccc5c4C[C@@]4(O)[C@@H](C2)N(CC2CC2)CC[C@]314`, the Activity entry in assay [7] is “Antagonist”.

Turning to `Oc1ccc2c3c1O[C@H]1c4[nH]c5c(c4C[C@@]4(O)[C@@H](C2)N(CC2CC2)CC[C@]314)C[C@@]1(O)[C@H]2Cc3ccc(O)c4c3[C@@]1(CCN2CC1CC1)[C@H]5O4`, the Activity entry in [7] was “Antagonist”.

In the case of `CN1CC[C@]23c4c5ccc(O)c4O[C@H]2c2[nH]c4ccccc4c2C[C@@]3(N)C1C5`, the inhibition constant Ki is 1050 nM on Mu-type opioid receptor [1], 2.88 nM in assay [5] and 399 nM in [6]. The values for the EC50 (at Mu-type opioid receptor [2]; in assay [4]) were greater than 1000 nM and 8.6 nM, respectively. Moreover, in [11], the Activity result was “Antagonist”. The Stimulation in assay [9] stood at 38%. Also, in assay [10], the Selectivity was 365.

As to `CN1CC[C@]23c4c5ccc(O)c4O[C@H]2c2[nH]c4ccccc4c2C[C@@]3(CCCc2ccccc2)C1C5`, the results for the inhibition constant (Ki) (on Mu-type opioid receptor [1]; in [5]; in assay [6]) were 4.91 nM, 23.6 nM and 63.3 nM, respectively. For the same molecule, the Stimulation in [12] turned out to be 67%; on Mu-type opioid receptor [3], 91%; in assay [9] it was 65%. Also, the values for the EC50 (on Mu-type opioid receptor [2]; in assay [4]; in assay [13]) were 21.5 nM, 7.53 nM and 96.5 nM, respectively. Moreover, the figures for the Selectivity in assay [8] and in assay [10] were 2.7 and 0.2, respectively.

In the case of `CN1CC[C@]23c4c5ccc(O)c4O[C@H]2c2[nH]c4ccccc4c2C[C@@]3(NCCCc2ccccc2)C1C5`, the Stimulation worked out at 50% on Mu-type opioid receptor [14], 65% in assay [12] and 37% in assay [9]. Besides, the figures for the Ki (at Mu-type opioid receptor [1]; in assay [5]; in assay [6]) were 10.2 nM, 1.95 nM and 7.79 nM, respectively. In addition, the EC50 at Mu-type opioid receptor [2] worked out at 45.1 nM; in assay [4] it was 0.87 nM; in [13] it was 27.2 nM. The Selectivity in [8] stood at 4; in assay [10], 5.

In the case of `CN1CC[C@]23c4c5ccc(O)c4O[C@H]2c2[nH]c4ccccc4c2C[C@@]3(NC(=O)Cc2ccccc2)C1C5`, the results for the Ki (at Mu-type opioid receptor [1]; in assay [5]; in assay [6]) were 29.3 nM, 6.55 nM and 148 nM, respectively. Moreover, the Stimulation in [12] was determined as 36%; at Mu-type opioid receptor [3], 53%; in assay [9], 89%. For the same molecule, the EC50 at Mu-type opioid receptor [2] turned out to be 95 nM; in [4], 1.2 nM; in [13] it was 96.2 nM. In addition, the results for the Selectivity in [8] and in assay [10] were 23 and 4.5, respectively.

In the case of `CCN[C@@]12Cc3c([nH]c4ccccc34)[C@@H]3Oc4c(O)ccc5c4[C@@]31CCN(C)C2C5`, the figures for the Ki (on Mu-type opioid receptor [1]; in assay [5]; in [6]) were 76.3 nM, 0.73 nM and 63.8 nM, respectively. In addition, the EC50 at Mu-type opioid receptor [2] was found to be 184 nM; in [4] it was 0.33 nM. Moreover, the Stimulation on Mu-type opioid receptor [3] turned out to be 50%; in assay [9], 43%. Further, the Activity entry in [11] was “Antagonist”. Besides, the figures for the Selectivity in assay [8] and in assay [10] were 87 and 105, respectively.

`C[C@@H](NC(=O)[C@@H](N)Cc1ccc(O)cc1)C(=O)NCC(=O)N(C)[C@@H](Cc1ccccc1)C(=O)NCCO`: the Stimulation in [12] was found to be 62%; at Mu-type opioid receptor [3], 100%.

Take `CCCCC(=O)N[C@@]12Cc3c([nH]c4ccccc34)[C@@H]3Oc4c(O)ccc5c4[C@@]31CCN(C)C2C5`: the Ki is 51.1 nM on Mu-type opioid receptor [1], 2.07 nM in assay [5] and 723 nM in assay [6]. Moreover, the values for the concentration giving a half-maximal response (EC50) (at Mu-type opioid receptor [2]; in [4]; in assay [13]) were 149 nM, 3.3 nM and 56.9 nM, respectively. Moreover, the Activity on Mu-type opioid receptor [3] is 31%; in assay [7] it was “Antagonist”. In addition, the Selectivity came out at 349 in [8] and 25 in assay [10]. Also, the Stimulation in [9] amounted to 74%.

As for `CN1CC[C@]23c4c5ccc(O)c4O[C@H]2c2[nH]c4ccccc4c2C[C@@]3(NCCc2ccccc2)C1C5`, the results for the Ki (on Mu-type opioid receptor [1]; in assay [5]; in assay [6]) were 1.68 nM, 1.1 nM and 13.8 nM, respectively. Also, the results for the Stimulation (in [12]; on Mu-type opioid receptor [3]; in [9]) were 74%, 93% and 33%, respectively. Also, the EC50 on Mu-type opioid receptor [2] turned out to be 5.33 nM; in [4], 0.95 nM; in [13], 16.4 nM. The Selectivity in assay [8] was 13; in [10] it was 1.5.

In the case of `CCCCN[C@@]12Cc3c([nH]c4ccccc34)[C@@H]3Oc4c(O)ccc5c4[C@@]31CCN(C)C2C5`, the Ki is 37.2 nM on Mu-type opioid receptor [1], 1.39 nM in assay [5] and 36.1 nM in assay [6]. For the same molecule, the Stimulation was determined as 33% in assay [12], 40% at Mu-type opioid receptor [3] and 36% in assay [9]. In addition, the figures for the EC50 (on Mu-type opioid receptor [2]; in [4]; in assay [13]) were 272 nM, 4.71 nM and 936 nM, respectively. The Selectivity amounted to 26 in assay [8] and 27 in [10].

In the case of `CN1CC[C@]23c4c5ccc(O)c4O[C@H]2c2[nH]c4ccccc4c2C[C@@]3(O)[C@H]1C5` [OXYMORPHINDOLE], the figures for the inhibition constant (Ki) (at Mu-type opioid receptor [1]; in assay [5]; in assay [6]) were 363 nM, 1.28 nM and 396 nM, respectively. In addition, the Selectivity in assay [8] is 309; in [10] it was 284.

With `CCCCCCC(=O)N[C@@]12Cc3c([nH]c4ccccc34)[C@@H]3Oc4c(O)ccc5c4[C@@]31CCN(C)C2C5`, the Stimulation on Mu-type opioid receptor [14] amounted to 44%; in assay [9] it was 55%. Moreover, the Ki on Mu-type opioid receptor [1] stood at 33.4 nM; in assay [5] it was 10.3 nM; in assay [6] it was 409 nM. In addition, the EC50 at Mu-type opioid receptor [2] came to 51.4 nM; in assay [4], 19 nM. In addition, the Activity result in assay [7] is “Antagonist”. For the same molecule, the Selectivity in assay [8] amounted to 40; in assay [10] it was 3.2.
